In patent publication US5281594A, “Substituted 1-(alkoxyphenyl)piperazines with ons and antihypertensive activity” (The Upjohn Company, priority 1992, dated 1994):
Where two headings read alike, the source gives them in different places. Values belong to the compound of their own block, whether it stands above or below them.

Key:
[1] = system: dopaminergic neurons in the substantia nigra (SNPC); assay: Dopamine nerve impulse generation: depression of firing of substantia nigra dopamine neurons (agonist); assay type: in vivo, Sprague-Dawley rats; conditions: for ED50 / Emax: Rattus norvegicus, Neuron, iv; for ED50: read-out: Agonist ED50: dose to depress firing by 50%; for Emax: read-out: Agonist Max.: maximal depression of firing; for maximal depression on DA cell firing (% of control): 1 mg/kg i.v.
Excerpt: (§1) 3. Dopamine Nerve Impulse Generation
Dopaminergic agonists, such as apomorphine, depress nerve impulses generated by dopaminergic neurons. Indeed, all full dopamine agonists can completely suppress impulse generation so that the dopamine cells stop firing completely. As the name implies, partial agonists depress impulse generation only partly.
(§2) The activity of two compounds of the invention are compared with other known drugs in their effect on nerve impulse generation. Sprague-Dawley rats weighing between 250-350 g are anesthetized with chloral hydrate (400 mg/kg i.p.). Supplemental doses (50-100 mg/kg) are administered as needed. The fermoral artery and vein are cannulated to measure blood pressure and to permit i.v. administration of drug. Body temperature is maintained at 37° C. using a deltaphase isothermal pad. The animal's head is held in a stereotaxic device and a small burr hole made in the cranium. Extracellular action potentials are recorded with a glass microelectrode (tip size<1μm) filled with pontamine sky blue dye in 2M sodium chloride.
(§3) Dopaminergic neurons are identified by their long duration action potential (>2.5 ms), shape and firing pattern ([…]) according to B. S. Bunney and G. K. Aghajanian "Antipsychotic Drugs and Central Dopaminergic Neurons: A Model for Predicting Therapeutic Efficacy and Incidence of Extrapyramidal Side Effects, In: Predictability in Psychopharmacology: Preclinical and Clinical Correlates, eds.", Raven Press, N.Y., pp. 225-245 (1975). […] Watson "The Rat Brain in Stereotaxic Coordinates", Academic Press, Sydney (1982).
(§4) At the termination of each recording session, the location of the cell in the substantia nigra is identified by passing 10 μA cathodic current through the recording electrode for 10-20 minutes. The brain is then removed, fixed in 10% formalin, sectioned and stained, and the pontamine sky blue deposit verified in each animal.
(§5) All drug solutions are made in distilled water. Each drug injection contained no more than 0.15 ml of a given concentration, followed by a 0.2-0.4 ml of physiological saline to clean the catheter of any residual drug. Drug effects are measured as changes in firing rates as indicated by an integrated output throughout the experiment.

[2] = system: dopaminergic neurons in the substantia nigra (SNPC); assay: Dopamine nerve impulse generation: reversal of amphetamine-induced depression of firing (antagonist); assay type: in vivo, Sprague-Dawley rats; conditions: for ED50: Rattus norvegicus, Neuron, iv, read-out: Antagonist ED50: dose to reverse amphetamine by 50%
Excerpt: as §1
Dopamine partial agonists act as dopamine antagonists when dopaminergic activity is excessive. Excessive dopaminergic activity can be induced by amphetamine, which causes dopamine to be released at nerve terminals in dopaminergic postsynaptic areas such as the caudate nucleus. This released dopamine activates negative feedback systems connecting postsynaptic dopaminergic areas to dopamine cells (e.g., the caudate nucleus feeds back onto substantia nigra neurons). Through this negative feedback system, amphetamine inhibits nerve impulses in dopamine neurons. Because dopamine antagonists block the access of dopamine to its receptors, these agents block the activation of the negative feedback pathways. Thus, dopamine antagonists and dopamine partial agonists block or reverse amphetamine's depression in dopamine nerve impulse activity. Because dopamine antagonists block not only the dopamine released by amphetamine but also the dopamine released for maintenance of a normal physiological state, dopamine antagonists not only completely reverse the effects of amphetamine but may actually cause an increase in dopamine neuron impulse activity (i.e. reverse amphetamine's inhibition by more than 100%). […] Indeed, partial agonists with higher intrinsic activities only partially reverse the effects of amphetamine.
as §2, §3, §4, §5

[3] = system: dopamine receptor within the central nervous system; assay: Block of apomorphine-induced cage climbing; assay type: in vivo, CF-1 mice; conditions: i.p., 25 minutes before apomorphine HCl 2.5 mg/kg i.p.; i.a. = inactive at top dose of 50 mg/kg
Procedure: Administration to mice stimulates dopaminergic receptors which results in enhanced locomotor activity, including climbing up the sides of wire cages. […] As a specific measure of their antagonistic effect, both the prior art compounds and the compounds of the invention are tested in their ability to block agonist-induced locomotor activity. […] During this time, mice that climb the walls more than half-way to the top (6") are removed from the cage. […] Co., New York, N.Y., p.

D2 receptor [4] = target: T1, D2 receptor (Rattus norvegicus, UniProt P61169); assay: biochemical; assay type: binding; conditions: for binding to dopamine receptors (in words): at concentrations as high as 1,000 nM (m-tolyl) and 10,000 nM (p-methoxyphenyl), respectively
T1 sequence (P61169 whole entry): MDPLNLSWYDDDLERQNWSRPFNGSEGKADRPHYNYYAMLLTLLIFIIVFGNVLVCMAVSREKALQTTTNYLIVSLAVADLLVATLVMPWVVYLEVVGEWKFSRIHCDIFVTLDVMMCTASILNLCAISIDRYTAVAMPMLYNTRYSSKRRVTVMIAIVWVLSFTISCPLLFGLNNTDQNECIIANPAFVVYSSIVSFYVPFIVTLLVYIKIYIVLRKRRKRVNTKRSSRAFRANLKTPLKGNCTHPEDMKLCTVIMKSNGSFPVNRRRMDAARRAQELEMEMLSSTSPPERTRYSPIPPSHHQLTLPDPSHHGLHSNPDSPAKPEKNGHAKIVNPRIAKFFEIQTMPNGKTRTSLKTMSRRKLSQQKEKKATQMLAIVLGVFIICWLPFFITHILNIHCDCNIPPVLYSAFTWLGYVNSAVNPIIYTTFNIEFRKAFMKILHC
Procedure: The compounds of the invention are tested in a series of assays known by those skilled in the art as predictive for activity as dopamine partial agonists. […] Drugs. […] Except as otherwise stated, all other chemicals are widely available from commercial sources.
1. Dopamine Receptor Binding
Since a dopamine partial agonist must bind to the dopamine receptor, binding studies are used to determine the affinity of a compound for the receptor. […] The dopamine receptor affinity of the prior art compounds is compared to two compounds of the present invention following the procedure described in R. H. Roth. Comm. […] Compounds are tested at least four concentrations in triplicate. Non-specific binding is determined using 1 uM thioridazine.

catalepsy [5] = conditions: rat, in vivo
[6] = system: amphetamine-induced stereotyped behavior; assay: Antagonism of amphetamine-induced stereotyped behavior; assay type: in vivo, Sprague-Dawley rats; conditions: for minimal effective dose: Rattus norvegicus, ip, i.p. 30 minutes before d-amphetamine (10 mg/kg s.c.), read-out: Antagonism amphetamine stereotypy: threshold dose for effect
Excerpt: Amphetamine releases excessive dopamine and induces a state in animals that serves as a model of positive-symptom schizophrenia. Amphetamine stimulates excessive locomotor activity in the rat, including uncontrolled stereotyped movements, characterized by licking and chewing. This model is indicative of the human response as amphetamine abuse is characterized by schizophrenic-like behavior in humans. Thus compounds may be tested in their ability to antagonize amphetamine.

D2 receptor [7] = conditions: PET scanning in humans; Farde; cited from earlier work
D2 receptor [8] = target: T1, D2 receptor; conditions: rat striata; Kohler; cited from earlier work
catalepsy [9] = assay: Catalepsy
[10] = 3H-raclopride, whole rat brain, non-specific binding with 1 uM thioridazine, i.a. = inactive at specified concentration, read-out: Ki (dose for 50% occupation of the receptors)

Compound: Cc1[nH]c2cccc3c2c1C[C@@H]1[C@@H]3C[C@H](NC(=O)C(C)(C)C)CN1C [SDZ 208-911, N-[(8-α)-2,6-dimethyl-ergoline-8-yl]-2,2-dimethylpropanamide]
ED50 [1]: 0.038 mg/kg | Emax [1]: 38% | ED50 [2]: 0.132 mg/kg | Antagonist Max.: maximal reversal of amphetamine ([2]; i.v.): 92%

Compound: CCCN1CCCC(c2cccc(O)c2)C1 (single isomer, unassigned; (-)) [(-)-3-PPP, (-)-3-(3-hydroxyphenyl)-N-n-propylpiperidine]
Emax ([1]; Table 3): 70% | ED50 ([1]; i.a. = inactive): 0.086 mg/kg

Ki (D2 receptor [4]; [10]): 3.7 nM
Compound: COc1ccccc1N1CCN(CCCCN2CCN(c3cccc(Cl)c3)C2=O)CC1 [Example 2, 1-(3-chlorophenyl)-3-[4-[4-(2-methoxyphenyl)-1-piperazinyl]butyl]-2-imidazolidinone]
maximal depression on DA cell firing (% of control) [1]: 54% | further depression of SNPC cells on increasing the dose (in words) ([1]; 3 mg/kg vs 1 mg/kg i.v.): does not further increase the depression in SNPC cells | Emax ([1]; Table 3): 54% | ED50 ([1]; i.a. = inactive): 0.108 mg/kg | depression of SNPC cells (in words) ([1]; i.v.): behaved as dopamine partial agonists | ED50: dose for elimination of climbing behavior in 2 of 4 animals [3]: 42 mg/kg | ED50 ([2]; i.a. = inactive): 0.343 mg/kg | Antagonist Max.: maximal reversal of amphetamine ([2]; i.v.): 73%

Compound: 7-hydroxy-1,2,3,4,4a,5,6,10-octahydrobenzo(f)quinoline [HW-165]
Agonist Max.: maximal depression of firing ([1]; i.v., Table 3): 85% | Agonist ED50: dose to depress firing by 50% ([1]; i.v., i.a. = inactive): 0.18 mg/kg

Compound: CN1C[C@@H](NC(=O)C(C)(C)C)C[C@@H]2c3cccc4[nH]c(Cl)c(c34)C[C@H]21 [SDZ 208-912, N-[(8-α)-2-chloro-6-methyl-ergoline-8-yl]-2,2-dimethylpropanamide]
ED50 [1]: 0.021 mg/kg | Emax [1]: 16% | ED50 [2]: 0.115 mg/kg | Antagonist Max.: maximal reversal of amphetamine ([2]; i.v.): 93% | Ki (D2 receptor [4]): 15.7 nM

Compound: CCCN(CCC)C1Cc2cccc3cc(O)cc(c23)C1 (single isomer, unassigned; (-)) [(-)-z-(dipropylamino)-2,3-dihydro-1-H-phenalen-5-ol]
Ki (D2 receptor [4]): 0.47 nM

Compound: O=C(CCCN1CCC(O)(c2ccc(Cl)cc2)CC1)c1ccc(F)cc1 [Haloperidol]
Emax [1]: 0% | Agonist ED50: dose to depress firing by 50% ([1]; i.v., i.a. = inactive): i.a. | Catalepsy: threshold dose for effect (catalepsy [5]): 1.0 mg/kg | ED50 ([2]; i.a. = inactive): 0.008 mg/kg | Antagonist Max.: maximal reversal of amphetamine ([2]; i.v.): 163% | minimal effective dose [6]: 1 mg/kg

Ki (D2 receptor [4]; read-out: Ki (dose for 50% occupation of the receptors)): 323 nM
Compound: Cl.O=C1N(CCCN2CCN(c3ccccc3)CC2)CCN1c1ccccc1 [1-phenyl-3-[3-(4-phenyl-1-piperazinyl)propyl]-2-imidazolidinone hydrochloride]
ED50: dose for elimination of climbing behavior in 2 of 4 animals [3]: i.a.

Bmax (D2 receptor [4]; 3H-raclopride, whole rat brain): 1.6 pmoles/g tissue
Compound: CCN1CCC[C@H]1CNC(=O)c1c(O)c(Cl)cc(Cl)c1OC [raclopride]
binding to the D2 receptor (in words) (D2 receptor [7]): binds to the D2 receptor | B max (D2 receptor [8]): 23.5 pmoles/g tissue

Ki (D2 receptor [4]; [10]): 2.6 nM
Compound: COc1ccccc1N1CCN(CCCCN2CCN(c3ccccc3)C2=O)CC1 [Example 1, 1-[4-[4-(2-methoxyphenyl)-1-piperazinyl]butyl]-3-phenyl-2-imidazolidinone]
maximal depression on DA cell firing (% of control) [1]: 32% | Emax ([1]; Table 3): 36% | ED50 ([1]; i.a. = inactive): 0.016 mg/kg | depression of SNPC cells (in words) ([1]; i.v.): behaved as dopamine partial agonists | Catalepsy: threshold dose for effect (catalepsy [9]; defined as 200% increase in time a rat will spend leaning on a box without aid): 10 mg/kg | catalepsy relative to dose blocking amphetamine-induced stereotypy (in words) (catalepsy [9]; rat, in vivo): produces catalepsy only at doses much higher that required to block amphetamine-induced stereotypy | ED50: dose for elimination of climbing behavior in 2 of 4 animals [3]: 12 mg/kg | ED50 ([2]; i.a. = inactive): 0.04 mg/kg | Antagonist Max.: maximal reversal of amphetamine ([2]; i.v.): 70% | antagonism of amphetamine-induced excessive dopaminergic activity (in words) ([2]; i.v.): only partially antagonized amphetamine | minimal effective dose [6]: 0.3 mg/kg | antagonism of amphetamine stereotypy, potency relative to haloperidol (in words) ([6]; rat, in vivo): antagonizes amphetamine stereotypy with a potency greater than that of halperidol

Compound: CN1CCc2cccc3c2[C@H]1Cc1ccc(O)c(O)c1-3 [Apomorphine]
Emax ([1]; Table 3): 100% | ED50 ([1]; i.a. = inactive): 0.01 mg/kg | Antagonist Max.: maximal reversal of amphetamine ([2]; i.v.): 0% | Antagonist ED50: dose to reverse amphetamine by 50% ([2]; i.v., i.a. = inactive): i.a.

Ki (D2 receptor [4]; [10]): > 10000 nM | binding to dopamine receptors (in words) (D2 receptor [4]): do not bind at all
Compound: COc1ccc(N2CCN(CCCN3CCN(c4cccc(Cl)c4)C3=O)CC2)cc1 [1-(m-chlorophenyl)-3-[3-[4-(p-methoxy-phenyl)-1-piperazinyl]propyl]-2-imidazolidinone]
ED50: dose for elimination of climbing behavior in 2 of 4 animals [3]: i.a.

Ki (D2 receptor [4]; [10]): > 1000 nM | binding to dopamine receptors (in words) (D2 receptor [4]): do not bind at all
Compound: Cc1cccc(N2CCN(CCCN3CCN(c4cccc(Cl)c4)C3=O)CC2)c1 [1-(m-chlorophenyl)-3-[3-[4-(m-tolyl)-1-piperazinyl]propyl]-2-imidazolidinone]
ED50: dose for elimination of climbing behavior in 2 of 4 animals [3]: i.a.

Compound: CCN(CC)C(=O)N[C@H]1C[C@@H]2c3cccc4[nH]cc(c34)C[C@H]2N(C)C1 [TDHL, 1-1-diethyl-3-(6-methyl-8α-ergoline)-urea dihydrogenphosphate]
ED50 [1]: 0.021 mg/kg | Emax [1]: 53% | ED50: dose for elimination of climbing behavior in 2 of 4 animals [3]: 35 mg/kg | ED50 [2]: 0.136 mg/kg | Antagonist Max.: maximal reversal of amphetamine ([2]; i.v.): 60% | Ki (D2 receptor [4]; [10]): 0.95 nM
